Data taken from patent US7053070B2, “Pyrido[2,3-d]pyrimidine-2,7-diamine kinase inhibitors” (Warner-Lambert Company, priority 2000, dated 2006).

Columns and labels:
cdk1/cyclinB = cdk1/cyclinB (Homo sapiens, UniProt P06493); assay: Cyclin dependent kinase 1 assay (cdk1/cyclinB), 32P incorporation, filter plate; assay type: biochemical; details: retinoblastoma substrate, 12 mM ATP, 25° C., 15 minutes; read-out: Inhibition of Cdks: IC50 Cdk1/B
Experimental: (§1) Cyclin Dependent Kinase 1 and 2 Assays (cdk1/cyclinB, cdk2/cyclinA, cdk2/cyclinE)
(§2) Enzyme assays for IC50 determinations and kinetic evaluation are performed in a 96-well filter plate (Millipore MADVN6550) in a total volume of 0.1 mL of 20 mM TRIS (tris[hydroxymethyl]aminomethane), at pH 7.4, 50 mM NaCl, 1 mM dithiothreitol, 10 mM MgCl2, […] containing 0.25 μCi of [^32P]ATP, 20 ng of enzyme (either cdk1/B, cdk2/A, or cdk2E), 1 μg retinoblastoma and appropriate dilutions of the particular invention compound. All components except the ATP are added to the wells, and the plate is placed on a plate mixer for 2 minutes. The reaction is begun by addition of [^32P]ATP, and the plate is incubated at 25° C. for 15 minutes. The reaction is terminated by addition of 0.1 mL of 20% TCA. The plate is kept at 4° C. for at least 1 hour to allow the substrate to precipitate. The wells are then washed 5 times with 0.2 mL of 10% TCA and ^32P incorporation determined with a beta plate counter (Wallac Inc., Gaithersburg, Md.).

cdk2/cyclinA = cdk2/cyclinA (Homo sapiens, UniProt P24941); assay: Cyclin dependent kinase 2 assay (cdk2/cyclinA), 32P incorporation, filter plate; assay type: biochemical; details: retinoblastoma substrate, 12 mM ATP, 25° C., 15 minutes; read-out: Inhibition of Cdks: IC50 Cdk2/A
Experimental: as §1, §2

cdk2/cyclinE = cdk2/cyclinE (Homo sapiens, UniProt P24941); assay: Cyclin dependent kinase 2 assay (cdk2/cyclinE), 32P incorporation, filter plate; assay type: biochemical; details: retinoblastoma substrate, 12 mM ATP, 25° C., 15 minutes; read-out: Inhibition of Cdks: IC50 Cdk2/E
Experimental: as §1, §2

cdk4/cyclinD = cdk4/cyclinD (Homo sapiens, UniProt P11802); assay: Cyclin Dependent Kinase 4 (cdk-4) Assay, 32P incorporation, filter plate; assay type: biochemical; details: retinoblastoma substrate, 25 μM ATP, 25° C., 15 minutes; read-out: Inhibition of Cdks: IC50 Cdk4D
Chain of cdk4/cyclinD (P11802 whole entry, species assumed): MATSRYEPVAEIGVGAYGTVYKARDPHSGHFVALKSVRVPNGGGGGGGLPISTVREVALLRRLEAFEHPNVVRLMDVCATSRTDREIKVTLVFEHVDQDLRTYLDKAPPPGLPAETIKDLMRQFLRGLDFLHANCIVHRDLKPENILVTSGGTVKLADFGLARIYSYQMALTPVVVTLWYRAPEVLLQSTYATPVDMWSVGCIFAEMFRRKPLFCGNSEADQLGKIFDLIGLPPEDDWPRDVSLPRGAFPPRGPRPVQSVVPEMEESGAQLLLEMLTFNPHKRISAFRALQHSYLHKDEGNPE
Chain of cdk4/cyclinD (P24385 whole entry partner, species assumed): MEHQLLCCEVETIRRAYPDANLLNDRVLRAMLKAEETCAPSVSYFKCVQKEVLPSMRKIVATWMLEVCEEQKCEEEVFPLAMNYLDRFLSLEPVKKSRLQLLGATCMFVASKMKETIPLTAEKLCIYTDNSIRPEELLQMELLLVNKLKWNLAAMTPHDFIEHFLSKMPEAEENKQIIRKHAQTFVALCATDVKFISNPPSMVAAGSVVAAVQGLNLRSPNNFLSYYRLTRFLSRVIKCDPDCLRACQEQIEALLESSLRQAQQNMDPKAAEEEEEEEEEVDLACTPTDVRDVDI
Experimental: Cyclin Dependent Kinase 4 (cdk-4) Assay
Enzyme assays for IC50 determinations and kinetic evaluation are performed in 96-well filter plates (Millipore MADVN6550). The total volume is 0.1 mL containing a final concentration of 20 mM TRIS (tris[hydroxymethyl]aminomethane), at pH 7.4, 50 mM NaCl, 1 mM dithiothreitol, 10 mM MgCl2, 25 μM ATP containing 0.25 μCi of [^32P]ATP, 20 ng of cdk4, 1 μg of retinoblastoma, and appropriate dilutions of a compound of the present invention. All components except the ATP are added to the wells, and the plate is placed on a plate mixer for 2 minutes. The reaction is started by adding [^32P]ATP, and the plate is incubated at 25° C. for 15 minutes. The reaction is terminated by addition of 0.1 mL of 20% trichloroacetic acid (TCA). The plate is kept at 4° C. for at least 1 hour to allow the substrate to precipitate. The wells are then washed 5 times with 0.2 mL of 10% TCA and ^32P incorporation is determined with a beta plate counter (Wallac Inc., Gaithersburg, Md.).

Chain of cdk1/cyclinB (P06493 whole entry, species assumed): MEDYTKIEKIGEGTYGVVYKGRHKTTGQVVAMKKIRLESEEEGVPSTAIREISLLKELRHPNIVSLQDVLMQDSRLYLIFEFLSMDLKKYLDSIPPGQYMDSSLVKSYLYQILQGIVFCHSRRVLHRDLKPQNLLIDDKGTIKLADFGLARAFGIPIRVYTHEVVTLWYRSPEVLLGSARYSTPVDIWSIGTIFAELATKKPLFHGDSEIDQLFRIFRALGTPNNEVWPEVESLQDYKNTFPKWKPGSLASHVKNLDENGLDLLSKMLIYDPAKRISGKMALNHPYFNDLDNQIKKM
Chain of cdk1/cyclinB (P14635 whole entry partner, species assumed): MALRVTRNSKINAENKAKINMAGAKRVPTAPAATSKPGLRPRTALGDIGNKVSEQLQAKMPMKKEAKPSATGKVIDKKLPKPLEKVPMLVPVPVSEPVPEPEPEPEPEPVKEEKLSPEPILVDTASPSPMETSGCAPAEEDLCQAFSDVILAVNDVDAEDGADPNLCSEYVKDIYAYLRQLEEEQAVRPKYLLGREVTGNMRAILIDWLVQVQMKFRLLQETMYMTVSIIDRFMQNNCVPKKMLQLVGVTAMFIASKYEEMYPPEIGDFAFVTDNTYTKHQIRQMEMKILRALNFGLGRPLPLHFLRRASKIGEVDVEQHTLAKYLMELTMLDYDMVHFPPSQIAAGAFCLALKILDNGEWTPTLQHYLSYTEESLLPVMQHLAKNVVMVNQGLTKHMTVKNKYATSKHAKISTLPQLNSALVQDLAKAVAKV

| Structure (SMILES) | IC50 (cdk1/cyclinB) | IC50 (cdk2/cyclinA) | IC50 (cdk2/cyclinE) | IC50 (cdk4/cyclinD) | melting point |
| --- | --- | --- | --- | --- | --- |
| Cc1cc(NC(=O)NC(C)(C)C)nc2nc(Nc3ccc(N4CCNCC4)cc3)ncc12 [Compound 4, 1-tert-Butyl-3-[5-methyl-2-(4-piperazin-1-yl-phenylamino)-pyrido[2,3-d]pyrimidin-7-yl]-urea] | > 5 µM | > 5000 nM | > 5 µM | 1500 nM | 230 to 232 °C (dec.) |
| CC(=O)N1CCN(c2ccc(Nc3ncc4ccc(NC(=O)NC(C)(C)C)nc4n3)cc2)CC1 [Compound 5, 1-{2-[4-(4-Acetyl-piperazin-1-yl)-phenylamino]-pyrido[2,3-d]pyrimidin-7-yl}-3-tert-butyl-urea] | 0.463 µM | 130 nM | 0.13 µM | 37 nM | 206 to 208 °C (dec.) |
| Cc1cc(NC(=O)NC2CCCCC2)nc2nc(Nc3ccc(N4CCNCC4)cc3)ncc12 [Compound 12, 1-Cyclohexyl-3-[5-methyl-2-(4-piperazin-1-yl-phenylamino)-pyrido[2,3-d]pyrimidin-7-yl]-urea] | > 5 µM | > 5000 nM | > 5 µM | 2100 nM | 238 °C (dec.) |
| CCNC(=O)Nc1cc(C)c2cnc(Nc3ccc(N4CCNCC4)cc3)nc2n1 [Compound 28, 1-Ethyl-3-[5-methyl-2-(4-piperazin-1-yl-phenylamino)-pyrido[2,3-d]pyrimidin-7-yl]-urea] | > 5 µM | > 5000 nM | > 5 µM | > 5000 nM | 220 to 222 °C |
| C[C@@H]1CN(c2ccc(Nc3ncc4ccc(NC(=O)NC(C)(C)C)nc4n3)cc2)C[C@H](C)N1 [Compound 49, 1-tert-Butyl-3-{2-[4-(cis-3,5-dimethyl-piperazin-1-yl)-phenylamino]-pyrido[2,3-d]pyrimidin-7-yl}-urea] | 0.911 µM | 528 nM | 0.475 µM | 50 nM | 245 °C (dec.) |
| C[C@@H]1CN(c2ccc(Nc3ncc4ccc(NC(=O)NC5CCCCC5)nc4n3)cc2)C[C@H](C)N1 [Compound 50, 1-Cyclohexyl-3-{2-[4-(cis-3,5-dimethyl-piperazin-1-yl)-phenylamino]-pyrido[2,3-d]pyrimidin-7-yl}-urea] | 0.069 µM | 22 nM | 0.035 µM | 7 nM | 228 °C (dec.) |
| C[C@@H]1CN(c2ccc(Nc3ncc4cc(F)c(NC(=O)NC5CCCCC5)nc4n3)cc2)C[C@H](C)N1 [Compound 52, 1-Cyclohexyl-3-{2-[4-(cis-3,5-dimethyl-piperazin-1-yl)-phenylamino]-6-fluoro-pyrido[2,3-d]pyrimidin-7-yl}-urea] | 0.472 µM | 213 nM | 0.126 µM | 27 nM | 227 to 229 °C |
| Cc1cc(NC(=O)NC2CCCC2)nc2nc(Nc3ccc(N4CCNCC4)cc3)ncc12 [Compound 53, 1-Cyclopentyl-3-[5-methyl-2-(4-piperazin-1-yl-phenylamino)-pyrido[2,3-d]pyrimidin-7-yl]-urea] | > 5 µM | > 5000 nM | > 5 µM | > 5000 nM | 234 °C (dec.) |
| CNC(=O)Nc1cc(C)c2cnc(Nc3ccc(N4CCNCC4)cc3)nc2n1 [Compound 64, 1-Methyl-3-[5-methyl-2-(4-piperazin-1-yl-phenylamino)-pyrido[2,3-d]pyrimidin-7-yl]-urea] | > 5 µM | > 5000 nM | > 5 µM | > 5000 nM | 204 to 206 °C (dec.) |
| CN(C(=O)Nc1ccc2cnc(Nc3ccc(N4CCNCC4)cc3)nc2n1)C1CCCCC1 [Compound 65, 1-Cyclohexyl-1-methyl-3-[2-(4-piperazin-1-yl-phenylamino)-pyrido[2,3-d]pyrimidin-7-yl]-urea] | > 5 µM | > 5000 nM | > 5 µM | > 5000 nM | 177 °C (dec.) |
| Cc1cc(NS(=O)(=O)N(C)C)nc2nc(Nc3ccc(N4CCNCC4)cc3)ncc12 [Compound 71] | > 5 µM | > 5000 nM | > 5 µM | > 5000 nM | 228 to 230 °C (dec.) |
| CC(C)(C)NC(=O)Nc1ccc2cnc(Nc3ccc(N4CCN(C(=O)OC(C)(C)C)CC4)cc3)nc2n1 [Compound 79, 4-{4-[7-(3-tert-Butyl-ureido)-pyrido[2,3-d]pyrimidin-2-ylamino]-phenyl}-piperazine-1-carboxylic acid tert-butyl ester] | > 5 µM | 1070 nM | > 5 µM | > 5000 nM | 225 °C (dec.) |
| O=C(NCCCO)Nc1ccc2cnc(Nc3ccc(N4CCNCC4)cc3)nc2n1 [Compound 81, 1-(3-Hydroxy-propyl)-3-[2-(4-piperazin-1-yl-phenylamino)-pyrido[2,3-d]pyrimidin-7-yl]-urea] | 2.61 µM | 1560 nM | 3.25 µM | 500 nM | 183 °C (dec.) |
| CC(C)C[C@@H](CO)NC(=O)Nc1ccc2cnc(Nc3ccc(N4CCNCC4)cc3)nc2n1 [Compound 83, 1-((S)-1-Hydroxymethyl-3-methyl-butyl)-3-[2-(4-piperazin-1-yl-phenylamino)-pyrido[2,3-d]pyrimidin-7-yl]-urea] | 0.399 µM | 305 nM | 0.315 µM | 55 nM | 185 °C (dec.) |
| CN1CCN(C(=O)Nc2ccc3cnc(Nc4ccc(N5CCNCC5)cc4)nc3n2)CC1 [Compound 84, 4-Methyl-piperazine-1-carboxylic acid [2-(4-piperazin-1-yl-phenylamino)-pyrido[2,3-d]pyrimidin-7-yl]-amide] | > 5 µM | > 5000 nM | > 5 µM | > 5000 nM | 200 °C (dec.) |
| O=C(Nc1ccc2cnc(Nc3ccc(N4CCNCC4)cc3)nc2n1)N1CCOCC1 [Compound 85, Morpholine-4-carboxylic acid [2-(4-piperazin-1-yl-phenylamino)-pyrido[2,3-d]pyrimidin-7-yl]-amide] | > 5 µM | > 5000 nM | > 5 µM | > 5000 nM | 190 °C (dec.) |
| CCCN(CCC)C(=O)Nc1ccc2cnc(Nc3ccc(N4CCNCC4)cc3)nc2n1 [Compound 86, 3-[2-(4-Piperazin-1-yl-phenylamino)-pyrido[2,3-d]pyrimidin-7-yl]-1,1-dipropyl urea] | > 5 µM | > 5000 nM | > 5 µM | > 5000 nM | 190 °C (dec.) |
| O=C(Nc1ccc2cnc(Nc3ccc(N4CCNCC4)cc3)nc2n1)N1CCNCC1 [Compound 87, Piperazine-1-carboxylic acid [2-(4-piperazin-1-yl-phenylamino)-pyrido[2,3-d]pyrimidin-7-yl]-amide] | > 5 µM | > 5000 nM | > 5 µM | > 5000 nM | 220 °C (dec.) |
| CC(C)[C@H](CO)NC(=O)Nc1ccc2cnc(Nc3ccc(N4CCNCC4)cc3)nc2n1 [Compound 88, 1-((R)-1-Hydroxymethyl-2-methyl-propyl)-3-[2-(4-piperazin-1-yl-phenylamino)-pyrido[2,3-d]pyrimidin-7-yl]-urea] | 0.418 µM | 43 nM | 0.055 µM | 25 nM | 200 °C (dec.) |
| O=C(Nc1ccc2cnc(Nc3ccc(N4CCNCC4)cc3)nc2n1)N(CCO)CCO [Compound 89, 1,1-Bis-(2-hydroxy-ethyl)-3-[2-(4-piperazin-1-yl-phenylamino)-pyrido[2,3-d]pyrimidin-7-yl]-urea] | > 5 µM | > 5000 nM | > 5 µM | > 5000 nM | 185 °C (dec.) |
| O=C(NCCCN1CCOCC1)Nc1ccc2cnc(Nc3ccc(F)cc3)nc2n1 [Compound 96, 1-[2-(4-Fluoro-phenylamino)-pyrido[2,3-d]pyrimidin-7-yl]-3-(3-morpholin-4-yl-propyl)-urea] | 6.36 µM | 1110 nM | 1.55 µM | > 5000 nM | 253 to 256 °C |
